Data set [1] concerns Anas platyrhynchos. Conditions: short-term; oral; feed; mortality.
The subject of data set [2] is Colinus virginianus.
Data set [3] relates to Rattus norvegicus.

Several values for one entry are separate records, joined by “and”; a condition that tells them apart may be missing. Identical values can stand only once.

By NOAEL is commonly meant the highest tested level that showed no adverse finding.

For the compound `Cn1cc(C(=O)Nc2ccc(F)cc2-c2ccc(Cl)c(Cl)c2)c(C(F)F)n1` [Bixafen], the LC50 in data set [1] is over 1550 mg/kg-day; in data set [2] (acute, oral, diet, mortality) it was over 1160 mg/kg-day. The LD50 is over 2000 mg/kg-day in data set [2] (acute, oral, mortality) and over 5000 mg/kg-day in data set [3] (acute, oral, mortality). For the same compound, the NOEC in data set [2] (reproduction developmental) was 24.5 mg/kg-day and 30 mg/kg-day. Besides, the NOEL in data set [3] (chronic, body weight) turned out to be 33.3 mg/kg-day. Besides, the no-observed-adverse-effect level (NOAEL) came out at 2 mg/kg-day in data set [3] (chronic, duration: 2 years, organ weight); 20 mg/kg-day in data set [3] (developmental, development); 12.9 mg/kg-day in data set [3] (subchronic, duration: 90 days, oral, organ weight).
